Counter-ions that a name gives are not always drawn.

The assay has as its target T1, MT1-MMP (Homo sapiens, UniProt P50281).
T1 construct: made in house
The assay can be described thus: In vitro inhibition of MT1-MMP, fluorogenic peptide substrate. Format: biochemical. Particulars: catalytic domain of human MT1-MMP; substrate 10 μM; 37° C. Here is the method:
The inhibitory activities of compounds of formula I on MT1-MMP, MMP1 (collagenase 1) and MMP2 (gelatinase A) can be determined as follows:
Stock solutions of substrate (MCA-Pro-Leu-Gly-Leu-Dpa-Ala-Arg-NH2, Knight, C. G., Willenbrock, F., Murphy, G., A novel coumarin-labelled peptide for sensitive continuous assays of the matrix metalloproteinases, FEBS lett., 296, 263-266, (1992)), are prepared in 100% DMSO at a concentration 1.0 mM. Stock solutions of inhibitors are prepared in 100% DMSO. The inhibitor is diluted into the assays from a solution in 100% DMSO, and controls substitute an equal volume of DMSO so that the final DMSO concentration from inhibitor and substrate dilutions in all assays is 6.0%. Assays are performed in assay buffer (150 mM NaCl, 10 mM CaCl2, 50 mM Tris-Cl pH7.5, 0.05% Brij-35) containing 6.0% DMSO once the substrate and inhibitor are diluted into it. The substrate concentration used in the assays is 10 μM. The test is carried out at 37° C. The fluorescence changes are monitored using an excitation wavelength of 320 nm and an emission wavelength of […]. The reaction mixture is added in duplicate to appropriate wells of a 96 well microfluor plate. The reaction mixture is preincubated with the inhibitor for 30 min, the reaction is started by the addition of MMP enzyme and the fluorescence intensity is measured for 10 min. A time point that is on a linear part of the curve is chosen to determine the activity. The inhibition results are expressed as the inhibitor concentrations that produced 50% inhibition (IC50) of the activity in the control (non-inhibited) reaction. In this test, the compounds of the formula I and their pharmacologically acceptable salts have an inhibiting concentration IC50 [μmol/litre] of 0.0001 and 0.030, usually of 0.0002 to 0.010, for MMP2 and an inhibiting concentration IC50 [μmol/litre] of 0.0005 and 0.125, usually of 0.001 to 0.05, for MT1-MMP.
Plasmid: The catalytic domain of the cDNA fragment encoding a full length of human MT1-MMP gene [from Prof. Motoharu Seiki, Institute of Medical Science, The University of Tokyo; Sato, H., Takino, T., Okada, Y., Cao, J., Shinagawa, A., Yamamoto, E. and Seiki, M. Nature (London), 370:61-65, 1994)] is amplified by polymerase chain reaction (PCR). […] The resulting PCR product of a 519-bp fragment is subcloned between the NdeI and BamHI unique sites of pET11a (Stratagene). The sequence of catalytic domain of MT1-MMP (CD-MT1-MMP) is verified by the ABI PRIS™ dye terminator cycle sequencing kit with the ABI PRISM™ 377 DNA sequencer (Perkin Elmer).
Expression and Purification: The subcloned CD-MT1-MMP is used to transfect E. coli strain BL21-[DE3] (Hanahan, D. J. Mol. Biol. 1983; 166(4):557-80) and expressed as insoluble inclusion body materials. Transfectants are grown at 37° C. in 50 ml Luria-Bertani (LB) medium in the presence of 50 µg/ml ampicillin to a cell density of OD600=0.6-1.0, and CD-MT1-MMP production is induced with 1 mM isopropyl-1-D-galactopyranoside (IPTG). After treatments with 5 mg/ml lysozyme and 10 μg/ml DNase I, the inclusion bodies are prepared from the harvested cells by using the detergent buffer containing 0.2 M NaCl, 1% w/v deoxycholic acid, and 1% v/v Nonidet P40. The solubilization is achieved by resuspending the inclusion bodies in the solubilization buffer composed of 6 M urea, 100 mM 2-mercaptoethanol, and 20 mM Tris-Cl, pH8.5. The enzyme is purified and renaturated using 10 ml of a Q-Sepharose (Amersham Pharmacia Biotech) column equilibrated with 5 mM CaCl2, 0.02% v/v NaN3, in 20 mM Tris-Cl pH7.5. After washing with three volumes of the same buffer, the bound proteins are eluted with two volumes of a linear gradient of 0.5-1.0 M NaCl. The collected fractions (1 ml each) are dialyzed for 6 h in equilibrated buffer. Superdex G200 column (1×15 cm) (Amersham Pharmacia) is equilibrated in 20 mM Tris-Cl, pH 7.5, 5 mM CaCl2, 0.02% NaN3. The desalted sample is applied to Superdex G200 column and chromatographed at 0.5 ml/min. […]
Take “2-[(Cyclopropylmethoxy-benzenesulfonyl)-(4-[1,2,4]triazol-1-yl-benzyl)-amino]-N-hydroxyacetamide-hydrochloride salt [Example 82b]”: the midpoint of inhibition, the IC50, lay at 0.6 nM.

Compound `COc1ccc(CN(CC(=O)NO)S(=O)(=O)c2ccc(OCCCCl)cc2)cc1` [Example 68, 2-{[4-(3-chloro-propoxy)-benzenesulfonyl]-(4-methoxy-benzyl)amino}-N-hydroxy-acetamide] showed an IC50 of 5.2 nM.

`C#CCOc1ccc(S(=O)(=O)N(CC(=O)NO)Cc2ccc(OC)cc2)cc1` [Example 75, [(4-methoxy-benzyl)-[4-prop-2-ynyloxy-benzenesulfonyl]-amino]-N-hydroxy-acetamide] displayed an IC50 of 1.4 nM.

As for `C=CCCOc1ccc(S(=O)(=O)N(CC(=O)NO)Cc2ccc(-n3cncn3)cc2)cc1` [Example 79, 2-[(4-but-3-enyloxy-benzenesulfonyl)-(4-[1,2,4]triazol-1-yl-benzyl)-amino]-N-hydroxy-acetamide-hydrochloride salt], it took 0.7 nM to reach half-maximal inhibition (IC50).

Compound `C=CCCOc1ccc(S(=O)(=O)N(CC(=O)NO)Cc2ccc(-n3ccnc3)cc2)cc1` [Example 80, 2-[(4-But-3-enyloxy-benzenesulfonyl)-(4-imidazol-1-yl-benzyl)-amino]-N-hydroxy-acetamide-hydrochloride] registered a 50% inhibitory concentration (IC50) of 1.2 nM.

With `C=CCCOc1ccc(S(=O)(=O)N(CC(=O)NO)Cc2ccc(N3CCOCC3)cc2)cc1` [Example 81, 2-[(4-But-3-enyloxy-benzenesulfonyl)-(4-morpholin-4-yl-benzyl)-amino]-N-hydroxy-acetamide-hydrochloride], the IC50 is 4.6 nM.

`O=C(CN(Cc1ccc(-n2cncn2)cc1)S(=O)(=O)c1ccc(OCCC2CC2)cc1)NO` [Example 82a] yielded an IC50 of 1.8 nM.

The compound `O=C(CN(Cc1ccc(-n2cncn2)cc1)S(=O)(=O)c1ccc(OCc2ccoc2)cc1)NO` [Example 82c] registered an IC50 of 10.7 nM.

Consider `C=CCCOc1ccc(S(=O)(=O)N(CC(=O)NO)Cc2cccc(F)n2)cc1` [Example 83a, 2-([4-But-3-enyloxy-benzenesulfonyl]-(6-fluoro-pyridine-2-yl)methyl-amino)-N-hydroxyacetamide], for which the IC50 was determined as 0.3 nM.

As for `C=CCCOc1ccc(S(=O)(=O)N(CC(=O)NO)Cc2ccc(N3CCCC3)cc2)cc1` [Example 84a, 2-[(4-But-3-enyloxy-benzenesulfonyl)-(4-(pyrrolidin-1-yl)-benzyl)-amino]-N-hydroxyacetamide-hydrochloride], the IC50 was found to be 20.4 nM.

The record behind these values is US8034810B2, “Arylsulfonamido-substituted hydroxamic acid derivatives” (Novartis AG, priority 1999, dated 2011).
